According to PMC11513618 (RSC Advances, 2024):
Square brackets hold non-standard residues; d marks the D form. Peptide text beside a SMILES is read from it. * marks the point of attachment. X1 = CC(=O)N[C@@H]1[C@@H](O[C@@H]2O[C@H](CO)[C@H](O)[C@H](O)[C@H]2O)[C@@H](O)[C@@H](CO[C@@H]2O[C@H](CO)[C@@H](O[C@@H]3O[C@H](CO)[C@H](O)[C@H](O[C@]4(C(=O)O)C[C@H](O)[C@@H](NC(C)=O)[C@H]([C@H](O)[C@H](O)CO)O4)[C@H]3O)[C@H](O[C@@H]3O[C@@H](C)[C@@H](O)[C@@H](O)[C@@H]3O)[C@H]2NC(C)=O)O[C@@H]1*; Phe(4-CH2SO3H) = N[C@@H](Cc1ccc(CS(=O)(=O)O)cc1)C(=O)O

Target: human P-selectin (Fc chimera) binding to PSGL-1 on U-937 monocytes (Homo sapiens, UniProt P16109)
Test: Flow cytometry: inhibition of P-selectin-Fc chimera binding to U-937 monocytes
Format: cell-based

Compound CC(=O)N[C@H]1[C@H](OC[C@H]2O[C@H](O[C@H](C)[C@H](NC(=O)[C@H](CCC(=O)O)NC(=O)[C@@H]3CCCN3C(=O)[C@H](CC(C)C)NC(=O)[C@H](Cc3ccccc3)NC(=O)[C@H](CC(=O)O)NC(=O)[C@H](Cc3ccc(CS(=O)(=O)O)cc3)NC(=O)[C@H](CC(=O)O)NC(=O)[C@H](CC(C)C)NC(=O)[C@H](Cc3ccc(CS(=O)(=O)O)cc3)NC(=O)[C@H](CCC(=O)O)NC(=O)[C@H](Cc3ccc(CS(=O)(=O)O)cc3)NC(=O)[C@H](CCC(=O)O)NC(=O)[C@H](CCCCN)NC(C)=O)C(=O)N[C@@H](CCC(=O)O)C(=O)N3CCC[C@H]3C(=O)N[C@@H](CC(C)C)C(=O)O)[C@H](NC(C)=O)[C@@H](O[C@@H]3O[C@H](CO)[C@H](O)[C@H](O)[C@H]3O)[C@H]2O)O[C@H](CO)[C@@H](O[C@@H]2O[C@H](CO)[C@H](O)[C@H](O[C@]3(C(=O)O)C[C@H](O)[C@@H](NC(C)=O)[C@H]([C@H](O)[C@H](O)CO)O3)[C@H]2O)[C@@H]1O[C@@H]1O[C@@H](C)[C@@H](O)[C@@H](O)[C@@H]1O [GSnP-6] (Ac-KE[Phe(4-CH2SO3H)]E[Phe(4-CH2SO3H)]LD[Phe(4-CH2SO3H)]DFLPET(X1)EPL-OH; C-terminus assumed) has an IC50 of 11.1 µM.
